Reference: PMC2254147, “Novel Triazine JPC-2067-B Inhibits Toxoplasma gondii In Vitro and In Vivo” (PLoS Neglected Tropical Diseases, 2008)
Converted amounts (≈) assume the structure as drawn. Read-outs that look alike come from different tables or passages of the source.

What was measured:
Rat liver DHFR = target: T1, Rat liver DHFR (Rattus norvegicus, UniProt Q920D2); assay: Spectrophotometric DHFR assay, rat liver DHFR; assay type: biochemical; conditions: for IC50: 37°C, (95% confidence limits); for Selectivity for pathogen DHFR (in words): rat liver DHFR versus Pc, Tg, Mav DHFR, Table 1
T1 construct: Rat liver DHFR was prepared from livers of female Sprague-Dawley rats; from tissue; host or cells: liver of female Sprague-Dawley rats
T1 sequence (Q920D2 1-187): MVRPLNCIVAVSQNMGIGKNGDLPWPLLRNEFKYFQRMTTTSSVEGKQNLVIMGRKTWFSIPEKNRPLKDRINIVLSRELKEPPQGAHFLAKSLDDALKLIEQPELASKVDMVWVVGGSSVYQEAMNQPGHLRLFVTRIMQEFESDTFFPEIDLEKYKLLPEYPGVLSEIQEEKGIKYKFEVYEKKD
Procedure: Rat liver DHFR was prepared from livers of female Sprague-Dawley rats. The 100,000× g supernate was partially purified by ammonium sulfate precipitation; the 50–90% precipitate was re-dissolved and stored in liquid nitrogen.
(§1) The spectrophotometric assay for DHFR was optimized for temperature and concentration of substrate and cofactor for each enzyme. […] The reaction was continuously recorded for 3 minutes. […] The low background activity in the absence of dihydrofolic acid was subtracted from all rates.
(§2) DHFR was assayed with several concentrations of inhibitor to produce rates ranging from 1 to 90% of the uninhibited rate. At least three concentrations were required for calculation; most curves contained five concentrations.

Pc DHFR = target: T2, Pc DHFR (Pneumocystis carinii, UniProt P16184); assay: Spectrophotometric DHFR assay, Pneumocystis carinii DHFR; assay type: biochemical
T2 construct: made in house; host or cells: Escherichia coli
T2 sequence (P16184 1-206): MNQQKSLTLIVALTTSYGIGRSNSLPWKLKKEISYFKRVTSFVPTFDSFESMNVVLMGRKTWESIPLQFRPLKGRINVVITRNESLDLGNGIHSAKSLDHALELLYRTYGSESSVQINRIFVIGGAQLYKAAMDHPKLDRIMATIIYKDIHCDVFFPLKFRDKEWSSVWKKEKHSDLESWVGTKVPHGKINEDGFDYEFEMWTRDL
Text: DHFR from Pneumocystis carinii was produced as the recombinant enzyme expressed in Escherichia coli. […] DHFR from T. gondii was isolated directly from RH strain T. gondii grown in culture on Chinese hamster ovary cells lacking DHFR (CHO/dhfr^-, American Type Culture Collection 3952 CL). Organisms were introduced into a confluent monolayer and harvested when the mammalian cells were lysed. The 100,000× g supernate was stored in liquid nitrogen.
The spectrophotometric assay for DHFR was optimized for temperature and concentration of substrate and cofactor for each enzyme. The standard assay contained Na phosphate buffer pH 7.4 (40.7 mM), 2-mercaptoethanol (8.9 mM), NADPH (0.117 mM), dihydrofolic acid (0.09 mM), KCL (150 mM), and sufficient enzyme to produce a change in OD340 of 0.035/minute at 37°C. The reaction was continuously recorded for 3 minutes. […] The low background activity in the absence of dihydrofolic acid was subtracted from all rates.
as §2

TgDHFR = target: T3, TgDHFR (Toxoplasma gondii, UniProt Q07422); assay: biochemical; assay type: biochemical
T3 construct: DHFR from T. gondii was isolated directly from RH strain T. gondii grown in culture; endogenous in cells; host or cells: RH strain T. gondii grown on CHO/dhfr- cells
T3 sequence (Q07422 1-610): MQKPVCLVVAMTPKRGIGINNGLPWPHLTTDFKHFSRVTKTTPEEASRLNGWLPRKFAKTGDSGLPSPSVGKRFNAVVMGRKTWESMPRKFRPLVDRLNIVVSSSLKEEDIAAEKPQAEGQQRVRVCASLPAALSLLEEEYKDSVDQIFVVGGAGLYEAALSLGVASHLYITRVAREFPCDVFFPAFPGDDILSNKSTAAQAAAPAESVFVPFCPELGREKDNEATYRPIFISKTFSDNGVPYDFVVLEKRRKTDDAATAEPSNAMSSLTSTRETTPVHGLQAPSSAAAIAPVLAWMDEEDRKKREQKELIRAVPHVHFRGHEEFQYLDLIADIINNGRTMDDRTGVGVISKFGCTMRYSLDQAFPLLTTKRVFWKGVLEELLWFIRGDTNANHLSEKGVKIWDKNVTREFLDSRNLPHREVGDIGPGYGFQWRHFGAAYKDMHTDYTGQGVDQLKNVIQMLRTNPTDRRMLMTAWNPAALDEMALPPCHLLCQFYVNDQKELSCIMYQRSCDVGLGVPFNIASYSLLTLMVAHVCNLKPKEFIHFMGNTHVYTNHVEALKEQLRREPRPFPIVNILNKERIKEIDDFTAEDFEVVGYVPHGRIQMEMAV
Procedure: DHFR from Pneumocystis carinii was produced as the recombinant enzyme expressed in Escherichia coli. […] Organisms were introduced into a confluent monolayer and harvested when the mammalian cells were lysed. The 100,000× g supernate was stored in liquid nitrogen.
as §1, §2

Mav DHFR = target: T4, Mav DHFR (Mycobacterium avium, UniProt O30463); assay: Spectrophotometric DHFR assay, Mycobacterium avium-intracellulare DHFR; assay type: biochemical; conditions: 37°C; (95% confidence limits)
T4 construct: the bacteria were centrifuged, sonicated, and the 100,000 Xg supernate was stored under liquid nitrogen until assay; endogenous in cells; host or cells: M. avium-intracellulare clinical isolate (serovar 4), Indiana University School of Medicine
T4 sequence (O30463 1-181): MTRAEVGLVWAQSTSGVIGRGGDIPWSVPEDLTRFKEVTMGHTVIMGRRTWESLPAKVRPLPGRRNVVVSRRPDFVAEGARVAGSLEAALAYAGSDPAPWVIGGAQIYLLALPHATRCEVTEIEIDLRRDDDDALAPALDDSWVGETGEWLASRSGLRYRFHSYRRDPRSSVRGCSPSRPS
Procedure: Mycobacterium avium-intracellulare used in these studies was a clinical isolate (serovar 4) from Indiana University School of Medicine, Department of Pathology. The strain was maintained on Lowenstein-Jensen slants (Baxter Scientific) grown at room temperature. To produce enzyme, the organism was grown in Middlebrook 7H-9 liquid medium at 37°C to an OD660 of 0.5 to 0.7, which took several weeks. At harvest, the bacteria were centrifuged, sonicated, and the 100,000 Xg supernate was stored under liquid nitrogen until assay. These supernates contained both DHFR and dihydroopteroate synthetase activity.
The spectrophotometric assay for DHFR was optimized for temperature and concentration of substrate and cofactor for each enzyme. The standard assay contained Na phosphate buffer pH 7.4 (40.7 mM), 2-mercaptoethanol (8.9 mM), NADPH (0.117 mM), dihydrofolic acid (0.09 mM), KCL (150 mM), and sufficient enzyme to produce a change in OD340 of 0.035/minute at 37°C. The reaction was continuously recorded for 3 minutes. Activity under these conditions was linear with enzyme concentration over a 4-fold range. The low background activity in the absence of dihydrofolic acid was subtracted from all rates.
as §2

[1] = Thompson Antimalarial Assay LD50; conditions: mouse, in vivo; @ Day 6
[2] = tested on: tester strains TA97, TA98, TA100, TA102 and TA1535; assay: Ames Test with and without microsomal activation; conditions: Tester Strains TA98, TA100, TA1535, TA1537 and TA1538
P. falciparum strains = conditions: drug-sensitive and drug-resistant strains; ref [4]-[10]; cited from earlier work
P. falciparum = conditions: ref [4]-[11]; cited from earlier work
[3] = ref 4 (superscript at the row head, footnote not given); cited from earlier work
[4] = ref 4 (superscript at the row head, footnote not given); cited from earlier work; remark: listed apart in the source
[5] = tested on: tester strains TA97, TA98, TA100, TA102 and TA1535; assay: Ames Test with and without microsomal activation
Procedure: (§3) A 42-day toxicology study in CD-1 mice at doses up to 98 mg/kg evaluating well-being, weight gain, and histopathology was performed. […] 7.5 mg/kg was established as the NOAEL (No Observed Adverse Effect Level). JPC-2056 and JPC-2067 were assayed in the Ames Test with and without microsomal activation with tester strains TA97, TA98, TA100, TA102 and TA1535.

[6] = 42-day toxicology study in CD-1 mice; assay type: in vivo
Procedure: as §3

[7] = 42-day toxicology study in Macaca fascicularis; assay type: in vivo
[8] = 42-day study, doses up to 98 mg/kg

CC1(C)N=C(N)N=C(N)N1OCCCOc1cc(Cl)c(Cl)cc1Cl [JPC-208-B, 4,6-diamino-1,2-dihydro-2,2-dimethyl-1-[3′(2,4,5-trichlorophenoxy)propyloxy]-1,3,5-triazine]
IC50 (Rat liver DHFR): 0.81 nM | Selectivity for pathogen DHFR (in words) (Rat liver DHFR): not selective | IC50 (Pc DHFR; 37°C, (95% confidence limits), read-out: Pc DHFR IC50): 0.265 nM | IC50 (TgDHFR; 37°C, (95% confidence limits), read-out: Tg DHFR IC50): 0.602 nM | IC50 (Mav DHFR): 0.57 nM | LD50 at 6 day [1]: > 128 mg/kg | Ames w/o Activation [2]: Not Active ^# | Ames with Activation [2]: Not Active ^# | ED50 in vitro against P. falciparum strains (P. falciparum strains): 0.05 ng/mL (≈ 0.127 nM) | Activity in vivo against P. falciparum, greater than that of pyrimethamine (P. falciparum): 2 logs | Oral LD50 Rat [3]: 1,980 mg/kg | Oral LD50 Mouse [4]: 3,510 mg/kg

CCc1nc(N)nc(N)c1-c1ccc(Cl)cc1 [JPC-1090-A-1, Pyrimethamine]
IC50 (Rat liver DHFR): 1320 nM | IC50 (Pc DHFR): 6170 nM | IC50 (Mav DHFR): 1200 nM

CC1(C)N=C(N)N=C(N)N1c1ccc(Cl)cc1 [JPC-2013-B-1, cycloguanil]
IC50 (Rat liver DHFR): 1730 nM | Selectivity for pathogen DHFR (in words) (Rat liver DHFR): not significantly selective | IC50 (Pc DHFR): 8900 nM | IC50 (TgDHFR): 410 nM | IC50 (Mav DHFR): 12100 nM

CC(C)NC(=N)NC(=N)NOCCCOc1ccc(OC(F)(F)F)cc1Cl [JPC-2056, 1-(3′-(2-chloro-4-trifluoromethoxyphenyloxy)propyloxy)-5-isopropylbiguanide]
Ames Test, with and without microsomal activation [5]: No activity | Ames w/o Activation [5]: Not Active ^* | Ames with Activation [5]: Not Active ^* | Toxicological findings, CD-1 Mice ([6]; 98 mg/kg for 42 days): Inhibition of Weight Gain at 98 mg/kg for 42 days | Gross pathology, CD-1 mice [6, 8]: no gross pathology with the exception of a reduction in the rate of weight gain | Histopathology findings, CD-1 mice [6, 8]: no histopathology findings | Toxicological findings, Cynomolgous Monkey ([7]; 15 mg/kg for 42 days): Intermittent Loose Stools/Diarrhea 15 mg/kg for 42 days | Findings in Macaca fascicularis at 15 mg/kg ([7]; 42-day study, 15 mg/kg, resolved upon drug withdrawal): histopathology findings at 15 mg/kg with sproradic episodes of loose stools/diarrhea | NOAEL at 42 day ([7]; cynomolgus monkey, in vivo, 42-day study, read-out: NOAEL (No Observed Adverse Effect Level)): 7.5 mg/kg | LD50 at 6 day [1]: 256 mg/kg

CC(C)N=C(N)/N=C(\N)NOCCCOc1cc(Cl)c(Cl)cc1Cl.Cl [PS-15]
Activity in vivo against P. falciparum, greater than that of pyrimethamine (P. falciparum): 2 logs
